Measurements reported in ChEMBL document CHEMBL1159019, “A strategy for identifying novel, mechanistically unique inhibitors of topoisomerase I” (J Nat Prod, 1992).

Tests used:
DNA topoisomerase 1 [1] = biological target: T1, DNA topoisomerase 1 (Homo sapiens, UniProt P11387); assay: Inhibition of human COLO201 cellular topoisomerase-1 mediated plasmid DNA cleavage by electrophoresis in presence of 70 units of enzyme
T1 sequence (P11387 whole entry): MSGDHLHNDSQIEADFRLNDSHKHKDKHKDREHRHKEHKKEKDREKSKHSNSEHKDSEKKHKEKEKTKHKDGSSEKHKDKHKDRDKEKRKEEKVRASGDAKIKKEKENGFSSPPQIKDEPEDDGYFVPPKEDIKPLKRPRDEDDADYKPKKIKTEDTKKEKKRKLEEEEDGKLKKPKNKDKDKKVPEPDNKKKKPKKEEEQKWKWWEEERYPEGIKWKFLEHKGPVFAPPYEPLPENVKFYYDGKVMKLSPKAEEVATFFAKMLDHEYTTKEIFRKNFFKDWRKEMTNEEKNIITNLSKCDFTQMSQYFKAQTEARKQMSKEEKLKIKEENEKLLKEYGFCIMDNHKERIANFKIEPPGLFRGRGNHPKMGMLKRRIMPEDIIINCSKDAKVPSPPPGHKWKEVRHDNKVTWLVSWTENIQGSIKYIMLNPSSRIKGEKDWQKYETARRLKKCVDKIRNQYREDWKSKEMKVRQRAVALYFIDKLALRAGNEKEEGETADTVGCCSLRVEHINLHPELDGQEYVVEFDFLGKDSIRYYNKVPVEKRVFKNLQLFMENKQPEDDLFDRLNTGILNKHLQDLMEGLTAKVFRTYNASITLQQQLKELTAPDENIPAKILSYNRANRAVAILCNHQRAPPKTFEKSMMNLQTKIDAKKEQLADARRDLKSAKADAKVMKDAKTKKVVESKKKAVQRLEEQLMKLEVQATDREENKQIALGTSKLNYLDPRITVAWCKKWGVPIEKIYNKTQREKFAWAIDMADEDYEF

DNA topoisomerase 1 [2] = biological target: T1, DNA topoisomerase 1; assay: Inhibition of human COLO201 cellular topoisomerase-1 mediated plasmid DNA cleavage by electrophoresis in presence of 14 units of enzyme

| IC50 (DNA topoisomerase 1 [1]) | IC50 (DNA topoisomerase 1 [2]) | Compound |
| --- | --- | --- |
| 40 µM | – | O=C(O[C@@H]1O[C@@H]2COC(=O)c3cc(O)c(O)c(O)c3-c3c(cc(O)c(O)c3O)C(=O)O[C@H]([C@H]1O)[C@@H]2O)c1cc(O)c(O)c(O)c1 [CORILAGIN] |
| 0.1 µM | 0.05 µM | O=C(O)C[C@@H]1C(=O)O[C@H]2[C@@H]3OC(=O)c4cc(O)c(O)c(O)c4-c4c(cc(O)c(O)c4O)C(=O)OC[C@H]2O[C@@H](OC(=O)c2cc(O)c(O)c(O)c2)[C@@H]3OC(=O)c2cc(O)c(O)c3c2[C@H]1[C@H](O)C(=O)O3 [CHEBULAGIC ACID] |
